# Assay results reported in patent US9834571B2, “Compounds for inhibiting cell proliferation in EGFR-driven cancers” (ARIAD Pharmaceuticals, Inc., priority 2012, dated 2017).
# Experiments:
# [1] = target: EGFR L858R (Homo sapiens, UniProt P00533, L858R); assay: Kinase inhibitory activity against EGFR bearing the L858R mutation; format: biochemical; details: EGFR L858R; 10 μM ATP; read-out: IC50 for kinase inhibition, EGFR L858R
# In short: (§1)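 Compounds were titrated over ten points starting at 3 μM, each point in singlicate, and kinase activity was measured in the presence of 10 μM ATP.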
# [2] = target: EGFR L858R/T790M (Homo sapiens, UniProt P00533, L858R/T790M); assay: Kinase inhibitory activity against EGFR bearing the L858R/T790M double mutation; format: biochemical; details: EGFR L858R/T790M double mutation; 10 μM ATP; read-out: IC50 for kinase inhibition, EGFR L858R T790M
# In short: as §1
# [3] = system: BaF3 cells expressing wildtype EGFR; assay: Antiproliferative activity (MTT) against control BaF3 cells expressing wildtype EGFR; format: cell-based; details: Mus musculus, BAF3 PARENTAL cells (control)
# In short: (§2)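 Growth inhibition of EGFR-mutant BaF3 cells was assessed with an MTT assay. A BaF3 line expressing wildtype EGFR served as comparator.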
# [4] = target: human EGFR (native sequence) (Homo sapiens, UniProt P00533); assay: Kinase inhibitory activity against human EGFR (native sequence); format: biochemical; details: human EGFR native sequence; 10 μM ATP; read-out: IC50 for kinase inhibition, EGFR
# human EGFR (native sequence), sequence (P00533 25-1210): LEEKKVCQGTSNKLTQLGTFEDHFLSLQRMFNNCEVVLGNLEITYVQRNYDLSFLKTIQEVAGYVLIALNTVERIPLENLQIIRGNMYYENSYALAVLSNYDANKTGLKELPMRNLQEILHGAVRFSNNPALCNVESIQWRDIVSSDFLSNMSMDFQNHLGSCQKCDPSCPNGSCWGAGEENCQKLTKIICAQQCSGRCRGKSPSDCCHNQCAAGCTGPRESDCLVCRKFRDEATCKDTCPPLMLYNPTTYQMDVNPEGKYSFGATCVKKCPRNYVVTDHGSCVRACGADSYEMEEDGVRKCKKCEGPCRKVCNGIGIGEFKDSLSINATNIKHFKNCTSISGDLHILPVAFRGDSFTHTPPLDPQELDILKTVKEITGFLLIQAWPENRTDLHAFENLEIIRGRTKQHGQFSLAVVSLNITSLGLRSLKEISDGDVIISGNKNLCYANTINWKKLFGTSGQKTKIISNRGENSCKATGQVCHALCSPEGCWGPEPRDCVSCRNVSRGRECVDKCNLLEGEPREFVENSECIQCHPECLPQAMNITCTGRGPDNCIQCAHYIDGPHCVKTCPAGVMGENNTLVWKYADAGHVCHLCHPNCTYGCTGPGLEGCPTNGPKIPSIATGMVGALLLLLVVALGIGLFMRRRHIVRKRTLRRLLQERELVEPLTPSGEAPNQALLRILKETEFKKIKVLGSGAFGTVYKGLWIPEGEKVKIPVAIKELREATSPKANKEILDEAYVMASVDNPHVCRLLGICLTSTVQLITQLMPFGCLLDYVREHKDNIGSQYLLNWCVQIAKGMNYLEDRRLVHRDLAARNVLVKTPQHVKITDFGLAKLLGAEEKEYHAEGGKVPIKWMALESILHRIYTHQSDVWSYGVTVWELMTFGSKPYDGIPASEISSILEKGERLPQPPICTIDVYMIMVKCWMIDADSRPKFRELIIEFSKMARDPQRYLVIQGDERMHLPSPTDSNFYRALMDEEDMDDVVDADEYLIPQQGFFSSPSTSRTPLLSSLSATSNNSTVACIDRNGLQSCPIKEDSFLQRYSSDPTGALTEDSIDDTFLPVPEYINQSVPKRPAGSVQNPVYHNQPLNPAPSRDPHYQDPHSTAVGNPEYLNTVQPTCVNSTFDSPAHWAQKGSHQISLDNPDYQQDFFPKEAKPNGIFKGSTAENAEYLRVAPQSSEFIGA
# In short: as §1
# [5] = target: T1, BaF3 cells expressing the target EGFR mutations (Homo sapiens, UniProt P00533, T790M, cells depend on it, form not given); assay: Antiproliferative activity (MTT) against BaF3 cells expressing the target EGFR mutations; format: cell-based; details: BAF3 EGFR DEL T790M PURO POOL cells, read-out: IC50, BAF3 EGFR DEL T790M PURO POOL
# T1 construct: IC50, BAF3 EGFR DEL T790M PURO POOL; other: BAF3 EGFR DEL T790M PURO POOL cells, MTT; other: BAF3 EGFR DEL T790M PURO POOL cells; MTT
# T1 sequence (P00533 with tags, fused parts or gaps DEL746-750/T790M, form open): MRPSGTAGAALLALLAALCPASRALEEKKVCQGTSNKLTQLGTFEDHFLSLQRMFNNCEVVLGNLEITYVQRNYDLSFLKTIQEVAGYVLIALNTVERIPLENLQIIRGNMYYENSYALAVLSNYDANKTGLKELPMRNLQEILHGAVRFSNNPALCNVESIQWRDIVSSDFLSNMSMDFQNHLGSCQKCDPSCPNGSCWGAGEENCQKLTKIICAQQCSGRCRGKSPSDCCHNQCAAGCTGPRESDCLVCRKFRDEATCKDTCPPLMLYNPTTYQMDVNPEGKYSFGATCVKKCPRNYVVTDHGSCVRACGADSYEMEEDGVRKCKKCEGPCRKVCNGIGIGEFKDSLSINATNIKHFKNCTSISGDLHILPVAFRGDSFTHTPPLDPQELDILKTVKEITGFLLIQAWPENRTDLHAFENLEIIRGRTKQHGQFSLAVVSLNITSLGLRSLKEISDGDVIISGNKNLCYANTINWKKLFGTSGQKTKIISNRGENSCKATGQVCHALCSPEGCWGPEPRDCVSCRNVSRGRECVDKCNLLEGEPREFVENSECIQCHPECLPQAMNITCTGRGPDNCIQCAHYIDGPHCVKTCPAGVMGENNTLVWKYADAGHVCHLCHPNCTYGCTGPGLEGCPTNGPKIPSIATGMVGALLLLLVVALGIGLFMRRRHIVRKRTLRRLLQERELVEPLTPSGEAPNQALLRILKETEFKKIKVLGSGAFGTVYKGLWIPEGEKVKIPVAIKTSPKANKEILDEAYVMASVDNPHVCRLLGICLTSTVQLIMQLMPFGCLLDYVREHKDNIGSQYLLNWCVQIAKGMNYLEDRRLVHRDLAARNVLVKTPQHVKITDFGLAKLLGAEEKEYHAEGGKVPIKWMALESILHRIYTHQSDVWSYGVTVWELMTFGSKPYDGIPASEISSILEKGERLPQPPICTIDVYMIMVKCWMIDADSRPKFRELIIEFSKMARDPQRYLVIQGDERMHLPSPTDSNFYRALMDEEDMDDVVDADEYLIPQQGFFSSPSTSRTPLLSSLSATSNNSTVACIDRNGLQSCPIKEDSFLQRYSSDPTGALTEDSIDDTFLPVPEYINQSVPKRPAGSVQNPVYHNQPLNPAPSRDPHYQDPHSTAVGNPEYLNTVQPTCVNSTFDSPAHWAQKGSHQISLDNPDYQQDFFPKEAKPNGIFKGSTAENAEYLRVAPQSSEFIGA
# In short: as §2
# [6] = target: T2, BaF3 cells expressing the target EGFR mutations (Homo sapiens, UniProt P00533, T790M/L858R, cells depend on it); assay: as above; format: cell-based; details: BAF3 EGFR L858R-T790M PURO POOL cells, read-out: IC50, BAF3 EGFR L858R-T790M PURO POOL
# T2 construct: IC50, BAF3 EGFR L858R-T790M PURO POOL; other: BAF3 EGFR L858R-T790M PURO POOL cells, MTT; IC50, BAF3 EGFR L858R-T790M PURO POOL; other: BAF3 EGFR L858R-T790M PURO POOL cells; MTT
# T2 sequence (P00533 whole entry T790M/L858R): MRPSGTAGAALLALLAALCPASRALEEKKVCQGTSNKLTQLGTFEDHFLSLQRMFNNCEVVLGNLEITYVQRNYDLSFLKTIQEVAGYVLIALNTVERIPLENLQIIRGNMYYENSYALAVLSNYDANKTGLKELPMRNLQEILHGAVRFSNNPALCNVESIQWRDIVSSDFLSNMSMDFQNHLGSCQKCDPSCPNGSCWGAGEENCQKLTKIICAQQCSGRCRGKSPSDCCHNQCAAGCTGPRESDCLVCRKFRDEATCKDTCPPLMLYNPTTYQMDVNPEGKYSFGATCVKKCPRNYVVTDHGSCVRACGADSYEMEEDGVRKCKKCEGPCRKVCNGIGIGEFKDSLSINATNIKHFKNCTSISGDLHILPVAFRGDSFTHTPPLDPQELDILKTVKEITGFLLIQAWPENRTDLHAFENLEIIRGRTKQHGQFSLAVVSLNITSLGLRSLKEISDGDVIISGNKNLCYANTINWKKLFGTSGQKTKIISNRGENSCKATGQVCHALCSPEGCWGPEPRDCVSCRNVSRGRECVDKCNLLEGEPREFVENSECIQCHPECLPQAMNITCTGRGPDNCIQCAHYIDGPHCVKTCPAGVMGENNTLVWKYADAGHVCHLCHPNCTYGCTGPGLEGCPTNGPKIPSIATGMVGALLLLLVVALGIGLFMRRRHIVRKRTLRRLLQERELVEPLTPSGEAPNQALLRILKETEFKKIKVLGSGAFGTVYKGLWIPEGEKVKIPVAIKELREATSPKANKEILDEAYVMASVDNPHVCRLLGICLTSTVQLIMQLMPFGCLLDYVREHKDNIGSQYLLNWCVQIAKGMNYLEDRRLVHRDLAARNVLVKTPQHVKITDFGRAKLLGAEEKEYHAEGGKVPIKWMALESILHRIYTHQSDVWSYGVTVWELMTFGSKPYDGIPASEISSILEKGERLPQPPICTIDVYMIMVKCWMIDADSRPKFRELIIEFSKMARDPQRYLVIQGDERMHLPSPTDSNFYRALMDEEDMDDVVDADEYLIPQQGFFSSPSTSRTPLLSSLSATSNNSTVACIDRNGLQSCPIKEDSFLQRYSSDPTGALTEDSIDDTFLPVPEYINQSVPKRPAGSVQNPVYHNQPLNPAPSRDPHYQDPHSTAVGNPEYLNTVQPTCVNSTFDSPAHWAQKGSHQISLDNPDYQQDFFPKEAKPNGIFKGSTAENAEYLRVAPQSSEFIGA
# In short: as §2
# EGFR L858R, sequence (P00533 25-1210 L858R): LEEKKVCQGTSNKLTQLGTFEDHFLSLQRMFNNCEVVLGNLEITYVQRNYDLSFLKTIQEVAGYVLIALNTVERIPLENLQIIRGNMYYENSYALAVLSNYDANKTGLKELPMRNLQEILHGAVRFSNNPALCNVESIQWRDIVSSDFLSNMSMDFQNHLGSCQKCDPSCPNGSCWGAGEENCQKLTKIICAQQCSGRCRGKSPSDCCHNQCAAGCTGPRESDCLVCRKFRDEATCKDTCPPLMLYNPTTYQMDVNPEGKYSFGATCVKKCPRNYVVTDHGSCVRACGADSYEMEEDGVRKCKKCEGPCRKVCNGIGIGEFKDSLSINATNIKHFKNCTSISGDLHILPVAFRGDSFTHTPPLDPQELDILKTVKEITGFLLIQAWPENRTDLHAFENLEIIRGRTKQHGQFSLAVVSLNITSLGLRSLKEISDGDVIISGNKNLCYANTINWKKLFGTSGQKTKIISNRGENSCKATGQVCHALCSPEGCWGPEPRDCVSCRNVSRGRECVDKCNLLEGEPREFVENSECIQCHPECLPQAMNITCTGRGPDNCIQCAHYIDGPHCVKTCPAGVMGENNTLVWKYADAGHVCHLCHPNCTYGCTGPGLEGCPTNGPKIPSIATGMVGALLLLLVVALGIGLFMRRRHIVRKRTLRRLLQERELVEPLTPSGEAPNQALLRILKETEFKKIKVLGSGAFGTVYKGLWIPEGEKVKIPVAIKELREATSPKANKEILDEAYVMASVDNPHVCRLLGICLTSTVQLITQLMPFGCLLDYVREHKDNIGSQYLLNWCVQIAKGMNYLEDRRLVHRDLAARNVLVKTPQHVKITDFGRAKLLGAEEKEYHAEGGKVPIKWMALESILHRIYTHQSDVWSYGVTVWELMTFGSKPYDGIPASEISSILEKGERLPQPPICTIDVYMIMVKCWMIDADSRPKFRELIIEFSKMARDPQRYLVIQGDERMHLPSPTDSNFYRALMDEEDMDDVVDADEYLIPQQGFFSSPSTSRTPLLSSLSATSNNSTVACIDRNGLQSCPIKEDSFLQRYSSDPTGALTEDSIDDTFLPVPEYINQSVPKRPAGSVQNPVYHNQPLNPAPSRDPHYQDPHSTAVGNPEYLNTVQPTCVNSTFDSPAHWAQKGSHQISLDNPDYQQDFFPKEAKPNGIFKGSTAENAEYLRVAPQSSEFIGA
SMILES,IC50 [1],IC50 [2],IC50 [4],GI50 [5],GI50 [6],IC50 [3]
"C=CC(=O)Nc1cc(Nc2ncc(Cl)c(Nc3ccccc3P(C)(C)=O)n2)c(OC)cc1CCN1CCN(C)CC1 [Example 74, N-(5-((5-chloro-4-((2-(dimethylphosphoryl)phenyl)amino)pyrimidin-2-yl)amino)-4-methoxy-2-(2-(4-methylpiperazin-1-yl)ethyl)phenyl)acrylamide]",< 50 nM,< 50 nM,< 50 nM,101 to 250 nM,≥ 250 nM,≥ 250 nM
"CCOC(=O)/C=C/C(=O)Nc1ccc(OC)c(Nc2ncc(Cl)c(Nc3ccccc3P(C)(C)=O)n2)c1 [Example 75, (E)-ethyl 4-((3-((5-chloro-4-((2-(dimethylphosphoryl)phenyl)amino)pyrimidin-2-yl)amino)-4-methoxyphenyl)amino)-4-oxobut-2-enoate]",< 50 nM,< 50 nM,< 50 nM,< 50 nM,< 50 nM,≥ 250 nM
"COc1ccc(NC(=O)/C=C/C2(NC(=O)OC(C)(C)C)CC2)cc1Nc1ncc(Cl)c(Nc2ccccc2P(C)(C)=O)n1 [Example 76, (E)-tert-butyl (1-(3-((3-((5-chloro-4-((2-(dimethylphosphoryl)phenyl)amino)pyrimidin-2-yl)amino)-4-methoxyphenyl)amino)-3-oxoprop-1-en-1-yl)cyclopropyl)carbamate]",≥ 250 nM,≥ 250 nM,≥ 250 nM,≥ 250 nM,≥ 250 nM,≥ 250 nM
"C=C(F)C(=O)Nc1ccc(OC)c(Nc2ncc(Cl)c(Nc3ccccc3P(C)(C)=O)n2)c1 [Example 77, N-(3-((5-chloro-4-((2-(dimethylphosphoryl)phenyl)amino)pyrimidin-2-yl)amino)-4-methoxyphenyl)-2-fluoroacrylamide]",< 50 nM,50 to 100 nM,≥ 250 nM,< 50 nM,50 to 100 nM,≥ 250 nM
"COc1ccc(NC(=O)/C=C/Cl)cc1Nc1ncc(Cl)c(Nc2ccccc2P(C)(C)=O)n1 [Example 78, (E)-3-chloro-N-(3-((5-chloro-4-((2-(dimethylphosphoryl)phenyl)amino)pyrimidin-2-yl)amino)-4-methoxyphenyl)acrylamide]",< 50 nM,< 50 nM,< 50 nM,< 50 nM,< 50 nM,≥ 250 nM
"COc1ccc(NC(=O)C2=CCCCC2)cc1Nc1ncc(Cl)c(Nc2ccccc2P(C)(C)=O)n1 [Example 79, N-(3-((5-chloro-4-((2-(dimethylphosphoryl)phenyl)amino)pyrimidin-2-yl)amino)-4-methoxyphenyl)cyclohex-1-enecarboxamide]",≥ 250 nM,≥ 250 nM,≥ 250 nM,≥ 250 nM,≥ 250 nM,≥ 250 nM
"CC#CC(=O)Nc1cc(Nc2ncc(Cl)c(Nc3ccccc3P(C)(C)=O)n2)c(OC)cc1OCCN1CCCC1 [Example 80, N-(5-((5-chloro-4-((2-(dimethylphosphoryl)phenyl)amino)pyrimidin-2-yl)amino)-4-methoxy-2-(2-(pyrrolidin-1-yl)ethoxy)phenyl)but-2-ynamide]",< 50 nM,< 50 nM,≥ 250 nM,< 50 nM,101 to 250 nM,≥ 250 nM
"COc1ccc(NC(=O)C#CCN(C)C)cc1Nc1ncc(Cl)c(Nc2ccccc2P(C)(C)=O)n1 [Example 81, N-(3-((5-chloro-4-((2-(dimethylphosphoryl)phenyl)amino)pyrimidin-2-yl)amino)-4-methoxyphenyl)-4-(dimethylamino)but-2-ynamide]",< 50 nM,< 50 nM,< 50 nM,< 50 nM,< 50 nM,≥ 250 nM
"C=C(C(=O)Nc1ccc(OC)c(Nc2ncc(Cl)c(Nc3ccccc3P(C)(C)=O)n2)c1)C(F)(F)F [Example 82, N-(3-((5-chloro-4-((2-(dimethylphosphoryl)phenyl)amino)pyrimidin-2-yl)amino)-4-methoxyphenyl)-2-(trifluoromethyl)acrylamide]",< 50 nM,< 50 nM,< 50 nM,≥ 250 nM,≥ 250 nM,≥ 250 nM
"COc1cc(P(C)(C)=O)ccc1Nc1ncc(Cl)c(Oc2cccc(NC(=O)C#CCN(C)C)c2)n1 [Example 83, N-(3-((5-chloro-2-((4-(dimethylphosphoryl)-2-methoxyphenyl)amino)pyrimidin-4-yl)oxy)phenyl)-4-(dimethylamino)but-2-ynamide]",< 50 nM,< 50 nM,< 50 nM,101 to 250 nM,≥ 250 nM,≥ 250 nM

# The next lines start with results.
IC50 [1],IC50 [2],IC50 [4],GI50 [5],GI50 [6],SMILES,IC50 [3]
< 50 nM,< 50 nM,< 50 nM,< 50 nM,< 50 nM,"C=CC(=O)Nc1cc(Nc2ncc(Cl)c(Nc3ccccc3P(C)(C)=O)n2)c(OC)cc1C#CC(C)(C)N [Example 65, N-(2-(3-amino-3-methylbut-1-yn-1-yl)-5-((5-chloro-4-((2-(dimethylphosphoryl)phenyl)amino)pyrimidin-2-yl)amino)-4-methoxyphenyl)acrylamide]",≥ 250 nM
< 50 nM,< 50 nM,< 50 nM,< 50 nM,< 50 nM,"C=CC(=O)Nc1cc(Nc2ncc(Cl)c(Nc3ccccc3P(C)(C)=O)n2)c(OC)cc1N(C)CCN(C)CCF [Example 67, N-(5-((5-chloro-4-((2-(dimethylphosphoryl)phenyl)amino)pyrimidin-2-yl)amino)-2-((2-((2-fluoroethyl)(methyl)amino)ethyl)(methyl)amino)-4-methoxyphenyl)acrylamide]",≥ 250 nM
< 50 nM,< 50 nM,< 50 nM,< 50 nM,< 50 nM,"C=CC(=O)Nc1cc(Nc2ncc(Cl)c(Nc3ccccc3P(C)(C)=O)n2)c(OC)cc1N1CCC(N2CCC2)C1 (stereo not drawn) [Example 68, N-(2-(3-(azetidin-1-yl)pyrrolidin-1-yl)-5-((5-chloro-4-((2-(dimethylphosphoryl)phenyl)amino)pyrimidin-2-yl)amino)-4-methoxyphenyl)acrylamide]",≥ 250 nM
< 50 nM,< 50 nM,< 50 nM,< 50 nM,< 50 nM,"C=CC(=O)Nc1cc(Nc2ncc(Cl)c(Nc3ccccc3P(C)(C)=O)n2)c(OC)cc1N1CCC(N2CCCCC2)CC1 [Example 69, N-(2-([1,4′-bipiperidin]-1-yl)-5-((5-chloro-4-((2-(dimethylphosphoryl)phenyl)amino)pyrimidin-2-yl)amino)-4-methoxyphenyl)acrylamide]",≥ 250 nM
< 50 nM,< 50 nM,< 50 nM,< 50 nM,< 50 nM,"C=CC(=O)Nc1cc(Nc2ncc(Cl)c(Nc3ccccc3P(C)(C)=O)n2)c(OC)cc1N1CCC(N2CCOCC2)CC1 [Example 70, N-(5-((5-chloro-4-((2-(dimethylphosphoryl)phenyl)amino)pyrimidin-2-yl)amino)-4-methoxy-2-(4-morpholinopiperidin-1-yl)phenyl)acrylamide]",≥ 250 nM
< 50 nM,< 50 nM,< 50 nM,50 to 100 nM,101 to 250 nM,"C=CC(=O)Nc1cc(Nc2ncc(Cl)c(Nc3ccccc3P(C)(C)=O)n2)c(OC)cc1N1CCC(N2CCCN(C)CC2)CC1 [Example 71, N-(5-((5-chloro-4-((2-(dimethylphosphoryl)phenyl)amino)pyrimidin-2-yl)amino)-4-methoxy-2-(4-(4-methyl-1,4-diazepan-1-yl)piperidin-1-yl)phenyl)acrylamide]",≥ 250 nM
< 50 nM,< 50 nM,50 to 100 nM,< 50 nM,101 to 250 nM,"C=CC(=O)Nc1cc(Nc2ncc(Cl)c(Nc3ccccc3P(C)(C)=O)n2)c(OC)cc1N1CCC(N2CCCC2)CC1 [Example 72, N-(5-((5-chloro-4-((2-(dimethylphosphoryl)phenyl)amino)pyrimidin-2-yl)amino)-4-methoxy-2-(4-(pyrrolidin-1-yl)piperidin-1-yl)phenyl)acrylamide]",≥ 250 nM
< 50 nM,< 50 nM,≥ 250 nM,101 to 250 nM,101 to 250 nM,"C=CC(=O)Nc1cc(Nc2ncc(Cl)c(Nc3ccccc3P(C)(C)=O)n2)c(OC)cc1C#CC1(N(C)C)CC1 [Example 73, N-(5-((5-chloro-4-((2-(dimethylphosphoryl)phenyl)amino)pyrimidin-2-yl)amino)-2-((1-(dimethylamino)cyclopropyl)ethynyl)-4-methoxyphenyl)acrylamide]",≥ 250 nM
